Laboratory results as given in patent US20120035175A1, “Novel salts as Anti-Inflammatory, Immunomodulatory and Anti-Proliferatory Agents” (4SC AG, priority 2010, published 2012).

Tests used:
[1] = test system: human lymphocyte cell proliferation; assay: Human lymphocyte cell proliferation (FIG. 1 legend); type: cell-based; conditions: concentration of 100 μM
recombinant murine DHODH = molecular target: T1, recombinant murine DHODH (Mus musculus, UniProt O35435); assay: Inhibition assay of DHODH activity (murine enzyme); type: biochemical; conditions: class symbols, key in nM
T1 construct: Prof; M. Löffler, Marburg, Germany (gift)
Experimental: (§1) The standard assay mixture contained 50 μM decyclo ubichinone, 100 μM dihydroorotate, 60 μM 2,6-dichloroindophenol, as well as 20 mU DHODH. The volume activity of the recombinant enzyme used was 30 U/ml. Measurements were conducted in 50 mM TrisHCl (150 mM KCl, 0.1% Triton X-100, pH 8.0) at 30° C. in a final volume of 1 ml. The components were mixed, and the reaction was started by adding dihydroorotate. The course of reaction was followed by spectrophotometrically measuring the decrease in absorption at 600 nm for […].
(§2) Inhibitory studies were conducted in a standard assay with additional variable amounts of inhibitor. […] These investigations were carried out with recombinant human as well as with recombinant murine DHODH provided by Prof. M. Löffler, Marburg, Germany [M. Löffler, Chem. Biol. Interact.

[2] = test system: Human peripheral blood mononuclear cells (PBMC), T-cell proliferation; assay: Proliferation assay of human T-cells (PHA-stimulated PBMC, BrdU ELISA); type: cell-based; conditions: PHA 20 μg/ml, 48 hours
Experimental: Human peripheral blood mononuclear cells (PBMC) were obtained from healthy volunteers and transferred to RPM11640 cell culture medium containing 10% dialyzed fetal calf serum. 80,000 cells per well were pipetted into a 96-well plate and phytohemagglutinin (PHA) was added in phosphate buffered saline to a final concentration of 20 μg/ml to stimulate T-cell proliferation. Vidofludimus was added in dimethyl sulfoxide (DMSO, final concentration: 0.1 Vol %) to final concentrations ranging from 20 nM to 50 μM. After incubation for 48 hours, cell proliferation was quantified using the “cell proliferation ELISA BrdU” (Roche) according to the manufacturer's instructions. […] (see FIG. 1).

[3] = Dynamic vapor sorption (water uptake); type: physicochemical
From the text: DVS (SMS): Surface Measurement Systems Ltd. DVS-1 water vapour sorption analyzer. The sample is placed on a platinum sample pan and allowed to equilibrate at a given relative humidity (r.h.), usually 50% r.h. Then, a pre-defined humidity program was started with a scanning rate of 5% r.h. change per hour. First step: from 50% r.h. to 0% r.h. (in case of a possibly hydrate as starting material 50 to 95% r.h.), second step: from 0% to 95% r.h. (in case of a possibly hydrate as starting material 95 to 0% r.h.)

[4] = Long-term stability, 18 months storage, HPLC; type: physicochemical
Experimental: HPLC: HPLC was performed with a Dionex UltiMate® 3000 liquid chromatograph comprising a solvent Rack, a vacuum degasser, a binary pump (mikro), a static mixer (500 μl), an autosampler, a 25 μl sample loop, a 100 μl syringe, a column oven and a DAD detector (semimicro measuring cell), which was set up for UV analysis. Data analysis was done with Chromeleon® 6.80 SP3. Compounds were separated at 30° C. on a Phenomenex Onyx™ Monolithic C18 50×2 mm column. The injection volume was 2 μl and the detection wavelength was 305 nm. As mobile phase, a gradient of 0.1% formic acid in HPLC grade water/acetonitrile was used, starting at a concentration of 5% acetonitrile. The starting concentration was held for 1 minute, then the gradient was ramped linearly to 95% acetonitrile over the course of 2 min, held for 0.7 min at 95% acetonitrile, after which it was returned to 5% acetonitrile within 0.1 min and kept constant for 0.7 min to re-equilibrate the column. The mobile phase flow rate was 1.5 ml/min.
The compounds were stored for 18 months at ambient conditions (20-25° C., 30-60% relative humidity) and subsequently analysed by HPLC for purity.

recombinant human DHODH = molecular target: T2, recombinant human DHODH (Homo sapiens, UniProt Q02127); assay: Inhibition assay of DHODH activity (human enzyme); type: biochemical; conditions: recombinant human DHODH; class symbols, key in nM; read-out: human IC50-Value
T2 construct: Prof; M. Löffler, Marburg, Germany (gift)
Experimental: as §1, §2

DHODH = DHODH (Rattus norvegicus, UniProt Q63707); assay: Inhibition assay of DHODH activity (column headed 'rate'); type: biochemical; conditions: class symbols, key in nM
Experimental: as §1, §2

T1 sequence (O35435 whole entry): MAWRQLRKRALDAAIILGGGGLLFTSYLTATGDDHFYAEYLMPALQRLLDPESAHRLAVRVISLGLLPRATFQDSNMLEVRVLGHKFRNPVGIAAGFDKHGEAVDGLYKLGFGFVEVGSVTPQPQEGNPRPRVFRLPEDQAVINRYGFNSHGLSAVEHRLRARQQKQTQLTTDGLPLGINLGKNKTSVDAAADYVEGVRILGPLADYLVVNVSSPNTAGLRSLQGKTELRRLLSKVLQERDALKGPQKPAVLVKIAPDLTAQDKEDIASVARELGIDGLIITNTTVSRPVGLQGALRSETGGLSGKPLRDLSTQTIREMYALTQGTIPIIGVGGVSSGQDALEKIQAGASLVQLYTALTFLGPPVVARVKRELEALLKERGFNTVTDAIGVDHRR
T2 sequence (Q02127 whole entry): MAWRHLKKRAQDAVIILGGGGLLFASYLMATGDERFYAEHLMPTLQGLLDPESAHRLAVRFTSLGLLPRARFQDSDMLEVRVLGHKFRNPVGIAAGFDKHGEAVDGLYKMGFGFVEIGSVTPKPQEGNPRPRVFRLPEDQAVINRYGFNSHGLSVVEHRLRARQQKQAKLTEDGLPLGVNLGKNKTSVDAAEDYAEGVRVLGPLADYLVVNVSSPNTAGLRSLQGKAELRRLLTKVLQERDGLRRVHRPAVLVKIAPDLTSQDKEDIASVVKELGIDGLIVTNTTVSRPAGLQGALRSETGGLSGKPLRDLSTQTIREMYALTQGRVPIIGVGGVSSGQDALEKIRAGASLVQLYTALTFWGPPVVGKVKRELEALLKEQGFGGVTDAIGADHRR
Sequence of DHODH (Q63707 whole entry): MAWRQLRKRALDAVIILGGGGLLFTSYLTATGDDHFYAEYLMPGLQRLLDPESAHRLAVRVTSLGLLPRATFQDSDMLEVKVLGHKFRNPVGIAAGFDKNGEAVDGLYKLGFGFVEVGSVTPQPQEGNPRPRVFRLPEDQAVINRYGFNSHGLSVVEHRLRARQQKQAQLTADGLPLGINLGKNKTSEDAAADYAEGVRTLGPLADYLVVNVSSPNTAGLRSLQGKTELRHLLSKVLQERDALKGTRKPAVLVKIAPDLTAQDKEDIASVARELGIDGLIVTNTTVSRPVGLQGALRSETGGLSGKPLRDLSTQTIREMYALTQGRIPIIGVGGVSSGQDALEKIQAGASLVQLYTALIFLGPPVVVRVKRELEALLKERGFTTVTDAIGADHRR

SMILES | Reduction of human lymphocyte cell proliferation [1] | IC50 (recombinant murine DHODH) [nM] | IC50 [2] [µM] | % water uptake at 95% r.h. ([3]; 95% r.h.) [%] | % water uptake at 85% r.h. ([3]; about 85% r.h.) [%] | Peak area ([4]; HPLC after 18 months storage at ambient conditions (20-25° C., 30-60% relative humidity)) [%] | Occurrence of hydrolysis product in HPLC after 18 months storage ([4]; ambient conditions (20-25° C., 30-60% relative humidity), LOD for hydrolysis product: 0.1 μg/ml) | IC50 (recombinant human DHODH) [nM] | IC50 (DHODH) [nM]
O=C(O)C1=C(C(=O)Nc2ccc(-c3ccccc3)cc2)CCC1 [2-(Biphenyl-4-ylcarbamoyl)-cyclopent-1-enecarboxylic acid] | Reduction of human lymphocyte cell proliferation |  |  |  |  |  |  |  | 
COc1cccc(-c2ccc(NC(=O)C3=C(C(=O)O)CCC3)c(F)c2)c1 [Compound 26, 2-((3-fluoro-3′-methoxy-[1,1′-biphenyl]-4-yl)carbamoyl)cyclopent-1-enecarboxylic acid] |  | > 1500 | 4.1 | 0.1 | 0.03 | >99 | Below LOD* |  | 
COc1ccccc1-c1cc(F)c(NC(=O)C2=C(C(=O)O)COC2)c(F)c1 [Compound 47, 4-((3,5-difluoro-2′-methoxy-[1,1′-biphenyl]-4-yl)carbamoyl)-2,5-dihydrofuran-3-carboxylic acid] |  | > 1500 |  |  |  |  |  | < 800 | < 800
